Assay results taken from ChEMBL document CHEMBL3137667, “[Drug-induced liver injury; fourteenth updated edition of the bibliographic database of liver injuries and related drugs]” (Gastroenterol Clin Biol, 2004).

Key:
[1] = human
[2] = Times to onset, minimal and maximal, observed in the indexed observations. [column 'DELAI' in source]; conditions: human
[3] = human, serum, 4383 h
[4] = human, serum
[5] = human; remark: listed apart in the source
[6] = human; remark: listed apart in the source
[7] = human; remark: listed apart in the source
[8] = Presence of at least one case with successful reintroduction. [column 'REINT' in source]; conditions: human
[9] = Highest frequency of acute liver toxicity observed during clinical trials, expressed as a percentage. [column '% AIGUE' in source]; conditions: human
[10] = human; remark: listed apart in the source
[11] = human; remark: listed apart in the source
[12] = human; remark: listed apart in the source
[13] = Highest frequency of moderate liver toxicity observed during clinical trials, expressed as a percentage. [column '% BIOL' in source]; conditions: human
[14] = human, serum; remark: listed apart in the source
[15] = human; remark: listed apart in the source
[16] = human; remark: listed apart in the source
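Throughout, for Hepatotoxicity (association with vascular disease): count of indexed literature references reporting vascular liver injury in humans, e.g. peliosis hepatitis, hepatic veno-occlusive disease or Budd-Chiari syndrome.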
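Throughout, for Hepatotoxicity (benign tumour): value is a count of indexed literature references citing a benign tumour confirmed by histopathology.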
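Throughout, for Hepatotoxicity (choleostasis): human cholestatic liver injury, shown by histopathology or by peak ALT or AST elevation over alkaline phosphatase ratio below 2, value counts indexed literature reports.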
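Throughout, for Hepatotoxicity (chronic liver disease): chronic liver injury confirmed by histopathology or persistently raised serum aminotransferase activity beyond 6 months, value given as the count of indexed literature references.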
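Throughout, for Hepatotoxicity (cirrhosis): value is a count of indexed literature references reporting cirrhosis confirmed by histopathology.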
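Throughout, for Hepatotoxicity (cytolytic): human cytolytic liver injury, shown by histopathology or by a ratio above 5 of peak ALT or AST elevation to alkaline phosphatase elevation, value counts indexed references.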
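Throughout, for Hepatotoxicity (granulomatous hepatitis): value is a count of indexed literature references reporting granulomatous liver disease confirmed by histopathology.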
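Throughout, for Hepatotoxicity (malignant tumour): malignant tumour confirmed by histopathology, value gives the count of indexed literature references reporting it.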
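Throughout, for Hepatotoxicity (severe hepatitis): human clinical data: severe hepatitis, meaning potentially life-threatening liver failure or clinically observed cases, the value counts how many indexed literature references report it.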
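Throughout, for Hepatotoxicity (steatosis): steatosis confirmed by histopathology, value is the count of indexed references.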

SMILES	Hepatotoxicity (severe hepatitis) [1]	Hepatotoxicity (time to onset) [2]	Hepatotoxicity (chronic liver disease) [3]	Hepatotoxicity (acute) [4]	Hepatotoxicity (cytolytic) [5]	Hepatotoxicity (malignant tumour) [6]	Hepatotoxicity (cirrhosis) [7]	Hepatotoxicity (successful reintroduction) [8]	Hepatotoxicity (acute) [9]	Hepatotoxicity (steatosis) [10]	Hepatotoxicity (granulomatous hepatitis) [11]	Hepatotoxicity (choleostasis) [12]	Hepatotoxicity (moderate) [13]	Hepatotoxicity (moderate) [14]	Hepatotoxicity (benign tumour) [15]	Hepatotoxicity (association with vascular disease) [16]	also measured
CCc1c(C)[nH]c2c1C(=O)C(CN1CCOCC1)CC2 (centres undefined) [MOLINDONE]	0	1 month	0	1	1	0	0	yes	0%	0	0	1	0%	2	0	0	–
CN(C)Cc1ccc(CSCCN/C(=C\[N+](=O)[O-])NCc2ccc3c(c2)OCO3)o1 [NIPEROTIDINE]	–	15 days - 7 months	0	2	–	0	0	yes	–	0	–	–	–	0	0	0	Hepatotoxicity (severe hepatitis) ([1]; Liver): 2; Hepatotoxicity (cytolytic) ([5]; Liver): 2; Hepatotoxicity (acute) ([9]; Liver): 0%; Hepatotoxicity (granulomatous hepatitis) ([11]; Liver): 0; Hepatotoxicity (choleostasis) ([12]; Liver): 2; Hepatotoxicity (moderate) ([13]; Liver): 0%
CC[C@]1(O)CC[C@H]2[C@@H]3CCC4=CC(=O)CC[C@@H]4[C@H]3CC[C@@]21C [NORETHANDROLONE]	2	2 weeks - 4.5 years	0	11	0	1	0	yes	0%	0	0	6	24%	3	2	3	–
Cc1nccn1CC1CCc2c(c3ccccc3n2C)C1=O (centres undefined) [ONDANSETRON]	0	8 days - 9 days	0	1	0	0	0	yes	0%	0	0	0	33%	23	0	0	–
C[C@]12C/C(=C/O)C(=O)C[C@@H]1CC[C@@H]1[C@@H]2CC[C@@]2(C)[C@H]1CC[C@]2(C)O [OXYMETHOLONE]	2	11 days - 15 years	0	10	1	14	0	yes	52.8%	0	0	3	50%	2	11	12	–
C1CNCCN1 [PIPERAZINE]	–	3 weeks - 1 month	0	2	–	0	0	yes	–	0	–	–	–	0	0	0	Hepatotoxicity (severe hepatitis) ([1]; Liver): 0; Hepatotoxicity (cytolytic) ([5]; Liver): 1; Hepatotoxicity (acute) ([9]; Liver): 0%; Hepatotoxicity (granulomatous hepatitis) ([11]; Liver): 0; Hepatotoxicity (choleostasis) ([12]; Liver): 2; Hepatotoxicity (moderate) ([13]; Liver): 0%
CCCN(CCC)S(=O)(=O)c1ccc(C(=O)O)cc1 [PROBENECID]	1	2 years	0	1	1	0	0	yes	0%	0	1	0	0%	0	0	0	–
CC(NCCc1ccc(O)cc1)C(O)c1ccc(O)cc1 (centres undefined) [RITODRINE]	0	4 days - 9 weeks	0	6	6	0	0	yes	0.9%	0	0	1	40%	6	0	0	–
O=C1NS(=O)(=O)c2ccccc21 [SACCHARIN]	–	2 weeks - 2 months	0	1	–	0	0	yes	–	0	–	–	–	0	0	0	Hepatotoxicity (severe hepatitis) ([1]; Liver): 0; Hepatotoxicity (cytolytic) ([5]; Liver): 1; Hepatotoxicity (acute) ([9]; Liver): 0%; Hepatotoxicity (granulomatous hepatitis) ([11]; Liver): 0; Hepatotoxicity (choleostasis) ([12]; Liver): 0; Hepatotoxicity (moderate) ([13]; Liver): 0%
CC(=O)S[C@@H]1CC2=CC(=O)CC[C@]2(C)[C@H]2CC[C@@]3(C)[C@@H](CC[C@@]34CCC(=O)O4)[C@H]12 [SPIRONOLACTONE]	0	6 weeks - 2 months	0	3	3	0	0	yes	0%	0	0	3	0%	0	0	0	–
O=c1[nH]c(=O)n(C2CCCO2)cc1F (centres undefined) [TEGAFUR]	3	1.5 months - 9 months	2	3	1	0	1	yes	0%	0	0	0	17.5%	2	0	0	–
O=c1cc[nH]c(=S)[nH]1 [THIOURACIL]	1	1 day - 3 weeks	0	5	1	0	0	yes	5.9%	0	0	1	0%	0	0	0	–
Cc1c(Cl)cccc1Nc1ccccc1C(=O)O [TOLFENAMIC ACID]	0	6 months	0	2	1	0	0	yes	0%	0	0	0	0%	0	0	0	–
COc1cc(C(=O)NS(=O)(=O)c2ccccc2C)ccc1Cc1cn(C)c2ccc(NC(=O)OC3CCCC3)cc12 [ZAFIRLUKAST]	3	2 months - 1 year	0	8	8	0	0	yes	0.5%	0	0	0	4.1%	4	0	0	–
